# Measured values published in patent publication US20060069080A1, “Combinations of substituted azetidinones and CB1 antagonists” (priority 2004, published 2006).
# Tests used:
# [1] = test system: diet-induced obese mice; settings: mouse, in vivo; cited from earlier work
# [2] = test system: Diet induced obese mice; assay: Treatment of diet induced obese C57BL/6 mice with rimonabant; assay type: in vivo, mouse; settings: 1, 3 and 10 mg/kg p.o. once a day for 5 consecutive days; western diet 16 weeks; at all doses
# Method: Plasma leptin and insulin were determined using commercially available ELISA kits (Crystal Chem and ALPCO for leptin and insulin, respectively). Whole body adiposity was determined using an NMR based method (EchoMRI, Echo Medical Inc.).
# [3] = test system: patients; settings: cited from earlier work
# [4] = test system: hypercholesterolemic/diet induced obese C57BL/6 mouse; assay: Treatment of hypercholesterolemic/diet induced obese C57BL/6 mice with ezetimibe; assay type: in vivo; settings: 5 mg/kg/day
# Method: The hypercholesterolemic/diet induced obese C57BL/6 mouse can be used to evaluate the vivo efficacy of a cholesterol absorption inhibitor, ezetimibe, in combination with a selective CB1 receptor antagonist, rimonabant. Feeding mice a “western” diet containing 45 kcal % of fat and 0.15% cholesterol diet for 21 days increased plasma cholesterol to 150 mg/dL and increased hepatic cholesteryl esters 2-fold.
# Nonfasted plasma cholesterol levels were determined by a modification of the cholesterol oxidase method, in which the reagents were available in a kit form from Wako Pure Chemicals Industries, Ltd. (Osaka, Japan). Samples of liver (0.2 g) were lipid extracted. Lipid extracts were dried under nitrogen into HPLC sample vials, resuspended in hexane and injected onto a Zorbax Sil (4.6×25 cm) silica column. Chromatography was performed using an isocratic mobile phase containing 98.8% hexane and 1.2% isopropanol at a flow rate of 2 mL/min. Lipids were detected by absorbance at 206 nm and quantitated by computer integration (System Gold, Beckman) of elution profiles. Elution time for cholesteryl ester was 1.45 min. Cholesteryl ester content of liver-derived samples was derived from a standard curve constructed using known amounts of cholesteryl oleate. Cholesteryl oleate was used as the standard since this is the major cholesteryl ester species present in the liver and this specific cholesteryl ester has an extinction coefficient that approximates that of a weighted average for all the cholesteryl esters present in the liver.
# [5] = test system: obese, hyperinsulinemic hamsters; settings: ezetimibe treatment; cited from earlier work
SMILES,plasma cholesterol levels [1],adiposity [2],body weight [2],cumulative food intake [2],plasma insulin levels [2],plasma leptin levels [2],serum high density lipoprotein (HDL) levels [3],triglyceride levels [3],accumulation of hepatic cholesteryl esters ([4]; western diet 21 days),"hepatic cholesteryl esters ([4]; western diet 21 days, control 12.8 mg/g)","plasma cholesterol levels ([4]; western diet (45 kcal % fat, 0.15% cholesterol) for 21 days, diet control 150 mg/dL)",body weights [5],food consumption [5],plasma leptin levels [5]
Cc1c(C(=O)NN2CCCCC2)nn(-c2ccc(Cl)cc2Cl)c1-c1ccc(Cl)cc1 [rimonabant],does not appear to reduce,significant dose dependent reduction,significant dose dependent reduction,significant dose dependent reduction,significant dose dependent reduction,significant dose dependent reduction,increase,decrease,,,,,,
"O=C1[C@H](CC[C@H](O)c2ccc(F)cc2)[C@@H](c2ccc(O)cc2)N1c1ccc(F)cc1 [Ezetimibe, ezetimibe]",,,,,,,,,completely inhibited,4.6 mg/g,102 mg/dL,does not appear to cause any changes,does not appear to cause any changes,does not appear to cause any changes
